Assay results published in patent US8350065B2, “5,6-dimethyl xanthone-4-acetic acid derivatives and method of preparing the same” (Grand Pharma (China) Co., Ltd., priority 2008, dated 2013).

System: Clone No. 38 tumor
Assay: Anti-tumor effect by short-term tissue assay in tumor-bearing mice (titled cytotoxic activity)
Type: in vivo
Settings: mice with Clone No. 38 tumor; for OD (minimum dose of brine injection administered by peritoneal injection and causing activity): peritoneal injection in brine, dose raised in 1.5-fold steps to maximum tolerated dose; for Activity (necrosis of tumor cross section): peritoneal injection, short-term tissue assay
Protocol: Cytotoxic activity of the compounds represented by formula (I) was measured by the following method.
Clone No. 38 tumor was obtained from Mason Research Inc. and injected into experimental mice. […] Each dosage level was measured independently at least two times (commonly, three times). For each measurement, each group had five mice. The anti-tumor effect of the compounds was measured through short-term tissue assay.
OD refers to the minimum dose (mg/Kg) of brine injection administered by peritoneal injection and causing activity; ++ refers to >90% of cross section is necrotic.

Structure (SMILES) | OD (minimum dose of brine injection administered by peritoneal injection and causing activity) [mg/kg] | Activity (necrosis of tumor cross section)
Cc1ccc2c(=O)c3cccc(CC(=O)O)c3oc2c1C [NO 1, 5,6-dimethyl xanthone-4-acetic acid] | 30 | ++ (>90% of cross section is necrotic)
Cc1cc(CC(=O)O)c2oc3c(C)c(C)ccc3c(=O)c2c1 [NO 2, 2,5,6-trimethyl xanthone-4-acetic acid] | 25 | ++ (>90% of cross section is necrotic)
Cc1cc2c(=O)c3cccc(CC(=O)O)c3oc2c(C)c1C [NO 3, 5,6,7-trimethylxanthone-4-acetic acid] | 30 | ++ (>90% of cross section is necrotic)
Cc1cc(C)c2c(=O)c3cccc(CC(=O)O)c3oc2c1C [NO 4, 5,6,8-trimethylxanthone-4-acetic acid] | 30 | ++ (>90% of cross section is necrotic)
